According to US9849435B2, “Maleic anhydride polymer-stabilized microcapsules” (Firmenich SA, priority 2013, dated 2017):

How the values were obtained:
[1] = Oil properties: Log P; format: physicochemical; details: oil ingredient
[2] = Oil properties: volatility; format: physicochemical; details: oil ingredient

Row | SMILES | Log P [1] | Volatility [2] [µg/L] | logP [1]
1 | C=CC(C)CCCC(C)(C)O (centres unmarked) [Dihydromycenol] | 3.47 | 1391 | 
2 | C=C(C)[C@H]1CC=C(C)CC1 [Limonene] | 4.38 | 14183 | 
3 | OCCc1ccccc1 [Phenylethyl Alcohol] |  |  | 1.52

More lines, now with the values ahead:

Row | Log P [1] | Volatility [2] [µg/L] | logP [1] | SMILES
4 | 4.16 | 371 |  | C/C=C/C(=O)C1C(C)C=CCC1(C)C (centres unmarked) [Delta-Damascone]
5 | 3.012 |  |  | CC(=O)/C=C/C1=C(C)CCCC1(C)C [β-Ionone]
